{
  "source": "patent EP2117510B1",
  "about": "“PARENTERAL PHARMACEUTICAL COMPOSITION AND METHOD FOR PREPARING THE SAME” (Physica Pharma, priority 2007, dated 2008)",
  "origin": "cited, not measured here",
  "conditions": "water, room temperature (environ 22° C)",
  "data": [
    {"molecule": "CC(C)c1cccc(C(C)C)c1O", "note": "[Propofol, 2,6-diisopropylphénol]", "values": [
      {"measurement": "solubilité dans l'eau", "result": "~160", "unit": "µg/mL"}
    ]}
  ]
}
